Measured values published in ChEMBL document CHEMBL1147144, “Novel styrylpyridines as probes for SPECT imaging of amyloid plaques” (J Med Chem, 2007).

Tests used:
[1] = tested on: Heart; experiment: Biodistribution in ICR mouse heart at 5 to 10 uCi, iv after 2 mins; format: ADME, organism-based; conditions: in vivo
[2] = tested on: Heart; experiment: Biodistribution in ICR mouse heart at 5 to 10 uCi, iv after 30 mins; format: ADME, organism-based; conditions: in vivo, 0.5 h
[3] = tested on: Heart; experiment: Biodistribution in ICR mouse heart at 5 to 10 uCi, iv after 1 hr; format: ADME, organism-based; conditions: in vivo
[4] = tested on: Kidney; experiment: Biodistribution in ICR mouse kidney at 5 to 10 uCi, iv after 2 hrs; format: ADME, organism-based; conditions: in vivo
[5] = tested on: Spleen; experiment: Biodistribution in ICR mouse spleen at 5 to 10 uCi, iv after 2 mins; format: ADME, organism-based; conditions: in vivo
[6] = tested on: Spleen; experiment: Biodistribution in ICR mouse spleen at 5 to 10 uCi, iv after 30 mins; format: ADME, organism-based; conditions: in vivo, 0.5 h
[7] = tested on: Heart; experiment: Biodistribution in ICR mouse heart at 5 to 10 uCi, iv after 2 hrs; format: ADME, organism-based; conditions: in vivo
[8] = tested on: Muscle tissue; experiment: Biodistribution in ICR mouse muscle at 5 to 10 uCi, iv after 2 mins; format: ADME, organism-based; conditions: in vivo
[9] = tested on: Muscle tissue; experiment: Biodistribution in ICR mouse muscle at 5 to 10 uCi, iv after 30 mins; format: ADME, organism-based; conditions: in vivo, 0.5 h
[10] = tested on: Muscle tissue; experiment: Biodistribution in ICR mouse muscle at 5 to 10 uCi, iv after 1 hr; format: ADME, organism-based; conditions: in vivo
[11] = tested on: Muscle tissue; experiment: Biodistribution in ICR mouse muscle at 5 to 10 uCi, iv after 2 hrs; format: ADME, organism-based; conditions: in vivo
[12] = tested on: Lung; experiment: Biodistribution in ICR mouse lung at 5 to 10 uCi, iv after 2 mins; format: ADME, organism-based; conditions: in vivo
[13] = tested on: Lung; experiment: Biodistribution in ICR mouse lung at 5 to 10 uCi, iv after 30 mins; format: ADME, organism-based; conditions: in vivo, 0.5 h
[14] = tested on: Lung; experiment: Biodistribution in ICR mouse lung at 5 to 10 uCi, iv after 1 hr; format: ADME, organism-based; conditions: in vivo
[15] = tested on: Lung; experiment: Biodistribution in ICR mouse lung at 5 to 10 uCi, iv after 2 hrs; format: ADME, organism-based; conditions: in vivo
[16] = tested on: Kidney; experiment: Biodistribution in ICR mouse kidney at 5 to 10 uCi, iv after 2 mins; format: ADME, organism-based; conditions: in vivo
[17] = tested on: Kidney; experiment: Biodistribution in ICR mouse kidney at 5 to 10 uCi, iv after 30 mins; format: ADME, organism-based; conditions: in vivo, 0.5 h
[18] = tested on: Kidney; experiment: Biodistribution in ICR mouse kidney at 5 to 10 uCi, iv after 1 hr; format: ADME, organism-based; conditions: in vivo
[19] = tested on: Spleen; experiment: Biodistribution in ICR mouse spleen at 5 to 10 uCi, iv after 1 hr; format: ADME, organism-based; conditions: in vivo
[20] = tested on: Spleen; experiment: Biodistribution in ICR mouse spleen at 5 to 10 uCi, iv after 2 hrs; format: ADME, organism-based; conditions: in vivo
[21] = tested on: Liver; experiment: Biodistribution in ICR mouse liver at 5 to 10 uCi, iv after 2 mins; format: ADME, organism-based; conditions: in vivo
[22] = tested on: Liver; experiment: Biodistribution in ICR mouse liver at 5 to 10 uCi, iv after 30 mins; format: ADME, organism-based; conditions: in vivo, 0.5 h
[23] = tested on: Liver; experiment: Biodistribution in ICR mouse liver at 5 to 10 uCi, iv after 1 hr; format: ADME, organism-based; conditions: in vivo
[24] = tested on: Liver; experiment: Biodistribution in ICR mouse liver at 5 to 10 uCi, iv after 2 hrs; format: ADME, organism-based; conditions: in vivo
[25] = tested on: Zone of skin; experiment: Biodistribution in ICR mouse skin at 5 to 10 uCi, iv after 2 mins; format: ADME, organism-based; conditions: in vivo
[26] = tested on: Zone of skin; experiment: Biodistribution in ICR mouse skin at 5 to 10 uCi, iv after 30 mins; format: ADME, organism-based; conditions: in vivo, 0.5 h
[27] = tested on: Zone of skin; experiment: Biodistribution in ICR mouse skin at 5 to 10 uCi, iv after 1 hr; format: ADME, organism-based; conditions: in vivo
[28] = tested on: Zone of skin; experiment: Biodistribution in ICR mouse skin at 5 to 10 uCi, iv after 2 hrs; format: ADME, organism-based; conditions: in vivo
[29] = tested on: Brain; experiment: Biodistribution in ICR mouse brain at 5 to 10 uCi, iv after 2 mins; format: ADME, organism-based; conditions: in vivo
[30] = tested on: Brain; experiment: Biodistribution in ICR mouse brain at 5 to 10 uCi, iv after 30 mins; format: ADME, organism-based; conditions: in vivo, 0.5 h
[31] = tested on: Brain; experiment: Biodistribution in ICR mouse brain at 5 to 10 uCi, iv after 1 hr; format: ADME, organism-based; conditions: in vivo
[32] = tested on: Brain; experiment: Biodistribution in ICR mouse brain at 5 to 10 uCi, iv after 2 hrs; format: ADME, organism-based; conditions: in vivo
[33] = tested on: Thyroid gland; experiment: Biodistribution in ICR mouse thyroid at 5 to 10 uCi, iv after 2 mins; format: ADME, organism-based; conditions: in vivo
[34] = tested on: Thyroid gland; experiment: Biodistribution in ICR mouse thyroid at 5 to 10 uCi, iv after 30 mins; format: ADME, organism-based; conditions: in vivo, 0.5 h
[35] = tested on: Thyroid gland; experiment: Biodistribution in ICR mouse thyroid at 5 to 10 uCi, iv after 1 hr; format: ADME, organism-based; conditions: in vivo
[36] = tested on: Thyroid gland; experiment: Biodistribution in ICR mouse thyroid at 5 to 10 uCi, iv after 2 hrs; format: ADME, organism-based; conditions: in vivo
[37] = tested on: Brain; experiment: Ratio of drug distribution in brain after 2 mins to 30 mins in ICR mouse at 5 to 10 uCi, iv; format: ADME, organism-based; conditions: in vivo
[38] = Partition coefficient, log P at pH 7.4; format: physicochemical; conditions: octanol/water
[39] = tested on: Blood; experiment: Biodistribution in ICR mouse blood at 5 to 10 uCi, iv after 2 mins; format: ADME, organism-based; conditions: in vivo
[40] = tested on: Blood; experiment: Biodistribution in ICR mouse blood at 5 to 10 uCi, iv after 30 mins; format: ADME, organism-based; conditions: in vivo, 0.5 h
[41] = tested on: Blood; experiment: Biodistribution in ICR mouse blood at 5 to 10 uCi, iv after 1 hr; format: ADME, organism-based; conditions: in vivo
[42] = tested on: Blood; experiment: Biodistribution in ICR mouse blood at 5 to 10 uCi, iv after 2 hrs; format: ADME, organism-based; conditions: in vivo

CN(C)c1ccc(/C=C/c2cnc(OCCOCCOCCF)c([125I])c2)cc1
Drug uptake [1]: 12.76 % ID/g | Drug uptake [2]: 1.63 % ID/g | Drug uptake [3]: 0.97 % ID/g | Drug uptake [4]: 1.71 % ID/g | Drug uptake [5]: 4.47 % ID/g | Drug uptake [6]: 1.42 % ID/g | Drug uptake [7]: 0.73 % ID/g | Drug uptake [8]: 0.9 % ID/g | Drug uptake [9]: 1 % ID/g | Drug uptake [10]: 0.59 % ID/g | Drug uptake [11]: 0.53 % ID/g | Drug uptake [12]: 10.1 % ID/g | Drug uptake [13]: 2.5 % ID/g | Drug uptake [14]: 1.62 % ID/g | Drug uptake [15]: 1.33 % ID/g | Drug uptake [16]: 16.6 % ID/g | Drug uptake [17]: 3.32 % ID/g | Drug uptake [18]: 2.3 % ID/g | Drug uptake [19]: 0.99 % ID/g | Drug uptake [20]: 0.79 % ID/g | Drug uptake [21]: 22.2 % ID/g | Drug uptake [22]: 9.54 % ID/g | Drug uptake [23]: 5.34 % ID/g | Drug uptake [24]: 5.62 % ID/g | Drug uptake [25]: 0.54 % ID/g | Drug uptake [26]: 1.47 % ID/g | Drug uptake [27]: 1.59 % ID/g | Drug uptake [28]: 1.23 % ID/g | Drug uptake [29]: 4.03 % ID/g | Drug uptake [30]: 1.93 % ID/g | Drug uptake [31]: 0.68 % ID/g | Drug uptake [32]: 0.26 % ID/g | Drug uptake [33]: 3.89 % ID/g | Drug uptake [34]: 16.2 % ID/g | Drug uptake [35]: 24.2 % ID/g | Drug uptake [36]: 60.8 % ID/g | Ratio [37]: 2.09 | logD [38]: 2.2 | Drug uptake [39]: 2.7 % ID/g | Drug uptake [40]: 2.05 % ID/g | Drug uptake [41]: 1.65 % ID/g | Drug uptake [42]: 1.45 % ID/g
